The record followed here is US4902622A, “Novel α-1,6-glucosidase and process for producing the same” (Amano Pharmaceutical Co., Ltd., priority 1986, dated 1990).

Holding throughout (type): biochemical, Bacillus sectorramus
Assay [1] relates to α-1,6-glucosidase. As to the kind of experiment: Influence of metal salt on enzyme activity. The settings on record: for Remaining activity (%): 50 mM acetic acid buffer (pH 4.5), 30 minutes at 40° C., final concentration of metal salt 5 mM; for Influence of metal salts: metal salt 5 mM. How it is done:
(§1) 8. Assay of activity: 4 ml of 0.5% pullulan solution (pH 4.5) was added to 1 ml of an enzyme solution, and the reaction was carried out for 30 minutes at 40° C. Then, 2 ml of Somogyi solution was added, the mixture was heated for 20 minutes and then cooled. After cooling, 1 ml of ammonium arsenomolybdenate was added, and water was added to a total volume of 25 ml. Absorbance of this solution was measured at 500 nm, with a layer thickness of 1 cm. Under these conditions, the activity was defined as one unit when reducing sugar corresponding to 1 μmol of glucose was produced per minute.
10. […] Influences of various metal salts are shown in Table 5, indicating the remaining activity after treatment in a 50 mM acetic acid buffer (pH 4.5) for 30 minutes at 40° C., with a final concentration of metal salt of 5 mM.

Assay [2] has as its system α-1,6-glucosidase. Kind of assay: Relative activity to polysaccharides (substrate specificity). The settings on record: activity of the enzyme on the polysaccharide, pullulan = 100. The procedure: 3. Relative activity to polysaccharides: Table 3 compares the relative activity of the enzyme on pullulan to relative activity on soluble maize amylopectin, soluble starch, oyster glycogen, hare glycogen, maize amylopectin, and potato amylopectin.
as §1

Assay [3] deals with α-1,6-glucosidase. As to the kind of experiment: Km value and Vmax to substrates. The settings on record: substrate of the purified enzyme.
From the text: After the cultivation period, the cells were removed from the culture broth, and the supernatant fraction thus obtained was concentrated to obtain a preparation of crude pullulanase. This preparation was fractionated with ammonium sulfate, then subjected to affinity chromatography with γ-cyclodextrin-cephalose 6B (produced by coupling γ-cyclodextrin to activated Sepharose 6B (trade mark, Pharmacia Fine Chemical Co.)) and purified to a single band by electrophoresis utilizing SDS-polyacrylamide gel. The following explains the enzymochemical properties of the α-1,6-glucosidase thus purified.
2. Km value and Vmax to substrates: The Km value (mg/ml) and Vmax value (μmol/min/mg protein) of the enzyme to pullulan, potato amylopectin, and corn amylopectin are as shown in Table 2:
as §1

Assay [4] relates to α-1,6-glucosidase. As to the kind of experiment: Influence of inhibitor on enzyme activity. The procedure:
as §1

Where [5] appears, read: 50 mM acetic acid buffer (pH 4.5), 30 minutes at 40° C., final concentration of inhibitor 1 mM.

Entries after “also recorded” stand apart in the source; their conditions may differ.

Turning to `[Cl-].[Cl-].[Sr+2]` [SrCl2], the “Remaining activity (%)” value with α-1,6-glucosidase [1] was 74.5%.
As a reminder, the Km is the concentration of substrate that gives half-maximal velocity. Turning to Pullulan, the “Relative activity (%)” value in the assay on α-1,6-glucosidase [2] turned out to be 100%. Also, in the assay with α-1,6-glucosidase [3], the Km turned out to be 0.14 mg/mL and the Vmax is recorded as 70.0 μmol/min/mg protein.
Take `O=C(O)CN(CCN(CC(=O)O)CC(=O)O)CC(=O)O` [EDTA]: in the assay with α-1,6-glucosidase [4] (pH 4.5), the “Remaining activity (%)” value was found to be 93.1%.
Take `O=C(O)CI` [Monoiodo-acetic acid]: the “Remaining activity (%)” value in the assay on α-1,6-glucosidase [4] (pH 4.5) worked out at 66.5%.
For the compound `O.O.O.O.O.O.[Cl-].[Cl-].[Mg+2]` [MgCl2.6H2 O], the “Remaining activity (%)” value in the assay on α-1,6-glucosidase [1] amounted to 91.3%.
For the compound `[Cl][Fe]([Cl])[Cl]` [FeCl3], in the assay on α-1,6-glucosidase [1], the “Remaining activity (%)” value worked out at 57.8% and the “Influence of metal salts” value was “inhibited”.
Turning to `O.O.[Cl][Cu][Cl]` [CuCl2.2H2 O], the “Remaining activity (%)” value in the assay with α-1,6-glucosidase [1] came out at 73.4%.
Turning to `O.O.O.O.O.O.[Cl][Ni][Cl]` [NiCl2.6H2 O], in the assay on α-1,6-glucosidase [1], the “Remaining activity (%)” value is 102.7% and the “Influence of metal salts” value is listed as “negligibly affected”.
For `O.O.O.O.O.[Cd+2].[Cd+2].[Cl-].[Cl-].[Cl-].[Cl-]` [CdCl2.21/2H2 O] the same measures were 92.4% and “negligibly affected”.
On to Soluble starch, for which the “Relative activity (%)” value with α-1,6-glucosidase [2] is on record as 6.7%.
In the case of `CCN1C(=O)C=CC1=O` [N--ethylmaleimide], in the assay on α-1,6-glucosidase [4] (setting [5]), the “Remaining activity (%)” value came out at 65.5%.
Consider `[Ba+2].[Cl-].[Cl-]` [BaCl2], for which, in the assay with α-1,6-glucosidase [1], the “Remaining activity (%)” value came to 98.9% and the “Influence of metal salts” value is “negligibly affected”.
For the compound `[Cl][Fe][Cl]` [FeCl2.nH2 O], in the assay with α-1,6-glucosidase [1], the “Remaining activity (%)” value was 82.1%.
As for `O.O.O.O.[Cl][Mn][Cl]` [MnCl2.4H2 O], in the assay with α-1,6-glucosidase [1], the “Remaining activity (%)” value stood at 85.9% and the “Influence of metal salts” value is given as “negligibly affected”.
Regarding `O.O.[Cl][Sn][Cl]` [SnCl2.2H2 O], in the assay on α-1,6-glucosidase [1], the “Remaining activity (%)” value came to 82.1%.
For the compound `O=C(O)c1cc[c]([Hg][Cl])cc1` [PCMB, p-chloromercuribenzoic acid], the “Remaining activity (%)” value in the assay with α-1,6-glucosidase [4] (setting [5]) was 27.1%.
Regarding `[Cl-].[Cl-].[Co+2]` [CoCl2], the “Remaining activity (%)” value in the assay on α-1,6-glucosidase [1] is recorded as 87.7%.
In the case of `CCCCCCCCCCCCOS(=O)(=O)[O-].[Na+]` [SDS, sodium dodecylsulfate], the “Remaining activity (%)” value in the assay with α-1,6-glucosidase [4] (setting [5]) is on record as 1.5%.
On to `[Ca+2].[Cl-].[Cl-]` [CaCl2], for which, in the assay with α-1,6-glucosidase [1], the “Remaining activity (%)” value is reported as 79.1%.
As for `Cl.Cl.[Ag]` [AgCl2], the “Remaining activity (%)” value with α-1,6-glucosidase [1] was 2.7%. In the assay with α-1,6-glucosidase [1] (listed as Ag^2+), the “Influence of metal salts” value is listed as “deactivated; also recorded: losses activity”.
As for `[Cl-].[Cl-].[Zn+2]` [ZnCl2], in the assay on α-1,6-glucosidase [1], the “Remaining activity (%)” value is 97.3% and the “Influence of metal salts” value is given as “negligibly affected”.
Take `c1cnc2c(c1)ccc1cccnc12` [o-phenanthroline]: the “Remaining activity (%)” value with α-1,6-glucosidase [4] (setting [5]) was 109.0%. The “Influence of inhibitor” value in the assay on α-1,6-glucosidase [4] (inhibitor 1 mM) is “not and not inhibited”.
Turning to `[Cl][Hg][Cl]` [HgCl2], the “Remaining activity (%)” value in the assay on α-1,6-glucosidase [1] is recorded as 0%. The “Influence of metal salts” value in the assay with α-1,6-glucosidase [1] (listed as Hg^2+) was “deactivated; also recorded: losses activity”.
